Experimental data published in patent publication US11267825B2 (AICURIS GMBH & CO. KG, priority 2017, dated 2022).

What was measured:
HBV = experiment: Determination of HBV DNA from the supernatants of HepAD38 cells (anti-HBV activity); type: cell-based, hepatitis B virus; details: Hepatitis B virus, 144 h; HBV DNA in HepAD38 supernatant at day 6; read-out: Cell Activity (EC50)
Outline: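 HepAD38 cells (60,000/well) were treated with half-log compound dilutions in tetracycline-free medium to induce HBV production. On day 6, HBV DNA was purified from filtered supernatant and quantified by real-time PCR against plasmid standards. EC50 values came from non-linear regression of relative copy numbers, typically from three experiments in triplicate.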

HBV core protein = HBV core protein (UniProt P03146); type: biochemical; details: read-out: Assembly Activity (IC50); BODIPY-FL labelled core protein, assembly started with NaCl, read after 6 min
Experimental: Biochemical Capsid Assembly Assay
The screening for assembly effector activity was done based on a fluorescence quenching assay published by Zlotnick et al. (2007). The C-terminal truncated core protein containing 149 amino acids of the N-terminal assembly domain was fused to a unique cysteine residue at position 150 and was expressed in E. coli using the pET expression system (Merck Chemicals, Darmstadt). Purification of core dimer protein was performed using a sequence of size exclusion chromatography steps. In brief, the cell pellet from 1 L BL21 (DE3) Rosetta2 culture expressing the coding sequence of core protein cloned NdeI/XhoI into expression plasmid pET21b was treated for 1 h on ice with a native lysis buffer (Qproteome Bacterial Protein Prep Kit; Qiagen, Hilden). After a centrifugation step the supernatant was precipitated during 2 h stirring on ice with 0.23 g/ml of solid ammonium sulfate. Following further centrifugation the resulting pellet was resolved in buffer A (100 mM Tris, pH 7.5; 100 mM NaCl; 2 mM DTT) and was subsequently loaded onto a buffer A equilibrated CaptoCore 700 column (GE HealthCare, Frankfurt). The column flow through containing the assembled HBV capsid was dialyzed against buffer N (50 mM NaHCO3 pH 9.6; 5 mM DTT) before urea was added to a final concentration of 3M to dissociate the capsid into core dimers for 1.5 h on ice. The protein solution was then loaded onto a 1 L Sephacryl S300 column. After elution with buffer N core dimer containing fractions were identified by SDS-PAGE and subsequently pooled and dialyzed against 50 mM HEPES pH 7.5; 5 mM DTT. To improve the assembly capacity of the purified core dimers a second round of assembly and disassembly starting with the addition of 5 M NaCl and including the size exclusion chromatography steps described above was performed. From the last chromatography step core dimer containing fractions were pooled and stored in aliquots at concentrations between 1.5 to 2.0 mg/ml at −80° C.
Immediately before labelling the core protein was reduced by adding freshly prepared DTT in a final concentration of 20 mM. After 40 min incubation on ice storage buffer and DTT was removed using a Sephadex G-25 column (GE HealthCare, Frankfurt) and 50 mM HEPES, pH 7.5. For labelling 1.6 mg/ml core protein was incubated at 4° C. and darkness overnight with BODIPY-FL maleimide (Invitrogen, Karlsruhe) in a final concentration of 1 mM. After labelling the free dye was removed by an additional desalting step using a Sephadex G-25 column. Labelled core dimers were stored in aliquots at 4° C. In the dimeric state the fluorescence signal of the labelled core protein is high and is quenched during the assembly of the core dimers to high molecular capsid structures. The screening assay was performed in black 384 well microtiter plates in a total assay volume of 10 μl using 50 mM HEPES pH 7.5 and 1.0 to 2.0 μM labelled core protein. Each screening compound was added in 8 different concentrations using a 0.5 log-unit serial dilution starting at a final concentration of 100 μM, 31.6 μM or 10 μM. In any case the DMSO concentration over the entire microtiter plate was 0.5%. The assembly reaction was started by the injection of NaCl to a final concentration of […] which induces the assembly process to approximately 25% of the maximal quenched signal. 6 min after starting the reaction the fluorescence signal was measured using a Clariostar plate reader (BMG Labtech, Ortenberg) with an excitation of 477 nm and an emission of 525 nm. As 100% and 0% assembly control HEPES buffer containing 2.5 M and 0 M NaCl was used. Experiments were performed thrice in triplicates. EC50 values were calculated by non-linear regression analysis using the Graph Pad Prism 6 software (GraphPad Software, La Jolla, USA).

HBV core protein, sequence (P03146 whole entry, looked up): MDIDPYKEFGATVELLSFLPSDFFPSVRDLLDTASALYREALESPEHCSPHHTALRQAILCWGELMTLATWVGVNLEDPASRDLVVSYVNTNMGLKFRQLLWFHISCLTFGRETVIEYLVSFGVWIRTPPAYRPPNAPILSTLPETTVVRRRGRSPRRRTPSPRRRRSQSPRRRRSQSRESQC

Structure (SMILES)	EC50 (HBV) [µM]	IC50 (HBV core protein) [µM]
O=C(c1cc2ccccc2[nH]1)N1CCc2nc(NC3(CO)CCC3)sc2C1 [Example 48, (1-{[5-(1H-indole-2-carbonyl)-4H,5H,6H,7H-[1,3]thiazolo[5,4-c]pyridin-2-yl]amino}cyclobutyl)methanol]	< 1	< 5
CC1(CNc2nc3c(s2)CN(C(=O)c2cc4ccccc4[nH]2)CC3)CCOC1 (centres unmarked) [Example 49, 5-(1H-indole-2-carbonyl)-N-[(3-methyloxolan-3-yl)methyl]-4H,5H,6H,7H-[1,3]thiazolo[5,4-c]pyridin-2-amine]	< 1	< 5
CC(=O)NNc1nc2c(s1)CN(C(=O)c1cc3ccccc3[nH]1)CC2 [Example 58, N′-[5-(1H-indole-2-carbonyl)-4H,5H,6H,7H-[1,3]thiazolo[5,4-c]pyridin-2-yl]acetohydrazide]	1 to 10	5 to 10
O=C(c1cc2c(F)ccc(F)c2[nH]1)N1CCc2nc(NCC3(CO)CC3)sc2C1 [Example 59, [1-({[5-(4,7-difluoro-1H-indole-2-carbonyl)-4H,5H,6H,7H-[1,3]thiazolo[5,4-c]pyridin-2-yl]amino}methyl)cyclopropyl]methanol]	< 1	< 5
O=C(c1cc2c(Cl)cc(F)cc2[nH]1)N1CCc2nc(NCC3(CO)CC3)sc2C1 [Example 60, [1-({[5-(4-chloro-6-fluoro-1H-indole-2-carbonyl)-4H,5H,6H,7H-[1,3]thiazolo[5,4-c]pyridin-2-yl]amino}methyl)cyclopropyl]methanol]	< 1	< 5
O=C(CC(F)(F)F)Nc1nc2c(s1)CN(C(=O)c1cc3ccccc3[nH]1)CC2 [Example 61, 3,3,3-trifluoro-N-[5-(1H-indole-2-carbonyl)-4H,5H,6H,7H-[1,3]thiazolo[5,4-c]pyridin-2-yl]propanamide]	< 1	5 to 10
CN(C)CC(=O)Nc1nc2c(s1)CN(C(=O)c1cc3ccccc3[nH]1)CC2 [Example 62, 2-(dimethylamino)-N-[5-(1H-indole-2-carbonyl)-4H,5H,6H,7H-[1,3]thiazolo[5,4-c]pyridin-2-yl]acetamide]	< 1	5 to 10
O=C(c1cc2c(Cl)cccc2[nH]1)N1CCc2nc(NCC3(CO)CC3)sc2C1 [Example 63, [1-({[5-(4-chloro-1H-indole-2-carbonyl)-4H,5H,6H,7H-[1,3]thiazolo[5,4-c]pyridin-2-yl]amino}methyl)cyclopropyl]methanol]	< 1	< 5
Cc1cccc2[nH]c(C(=O)N3CCc4nc(NCC5(CO)CC5)sc4C3)cc12 [Example 64, [1-({[5-(4-methyl-1H-indole-2-carbonyl)-4H,5H,6H,7H-[1,3]thiazolo[5,4-c]pyridin-2-yl]amino}methyl)cyclopropyl]methanol]	< 1	< 5
O=C(c1cc2ccccc2[nH]1)N1CCc2nc(NCC3COCCO3)sc2C1 (centres unmarked) [Example 66, N-[(1,4-dioxan-2-yl)methyl]-5-(1H-indole-2-carbonyl)-4H,5H,6H,7H-[1,3]thiazolo[5,4-c]pyridin-2-amine]	< 1	< 5
O=C(c1cc2ccccc2[nH]1)N1CCc2nc(NC3CCC(O)CC3)sc2C1 (centres unmarked) [Example 67, 4-{[5-(1H-indole-2-carbonyl)-4H,5H,6H,7H-[1,3]thiazolo[5,4-c]pyridin-2-yl]amino}cyclohexan-1-ol]	< 1	< 5
CC(C)(CO)Nc1nc2c(s1)CN(C(=O)c1cc3ccccc3[nH]1)CC2 [Example 68, 2-{[5-(1H-indole-2-carbonyl)-4H,5H,6H,7H-[1,3]thiazolo[5,4-c]pyridin-2-yl]amino}-2-methylpropan-1-ol]	< 1	< 5
CC1(Nc2nc3c(s2)CN(C(=O)c2cc4ccccc4[nH]2)CC3)CCOCC1 [Example 69, 5-(1H-indole-2-carbonyl)-N-(4-methyloxan-4-yl)-4H,5H,6H,7H-[1,3]thiazolo[5,4-c]pyridin-2-amine]	< 1	< 5
COCC(C)Nc1nc2c(s1)CN(C(=O)c1cc3ccccc3[nH]1)CC2 (centres unmarked) [Example 70, 5-(1H-indole-2-carbonyl)-N-(1-methoxypropan-2-yl)-4H,5H,6H,7H-[1,3]thiazolo[5,4-c]pyridin-2-amine]	< 1	< 5
CC(C)(C)Nc1nc2c(s1)CN(C(=O)c1cc3ccccc3[nH]1)CC2 [Example 71, N-tert-butyl-5-(1H-indole-2-carbonyl)-4H,5H,6H,7H-[1,3]thiazolo[5,4-c]pyridin-2-amine]	< 1	< 5
O=C(c1cc2ccccc2[nH]1)N1CCc2nc(NCC3CCCO3)sc2C1 (centres unmarked) [Example 72, 5-(1H-indole-2-carbonyl)-N-[(oxolan-2-yl)methyl]-4H,5H,6H,7H-[1,3]thiazolo[5,4-c]pyridin-2-amine]	< 1	< 5
O=C(c1cc2ccccc2[nH]1)N1CCc2nc(NCCCN3CCOCC3)sc2C1 [Example 73, 5-(1H-indole-2-carbonyl)-N-[3-(morpholin-4-yl)propyl]-4H,5H,6H,7H-[1,3]thiazolo[5,4-c]pyridin-2-amine]	< 1	< 5
O=C(c1cc2ccccc2[nH]1)N1CCc2nc(CNCc3ccccc3)sc2C1 [Example 74, Benzyl({[5-(1H-indole-2-carbonyl)-4H,5H,6H,7H-[1,3]thiazolo[5,4-c]pyridin-2-yl]methyl})amine]	1 to 10	< 100
O=C(c1cc2c(F)cc(F)cc2[nH]1)N1CCc2nc(NCC3(CO)CC3)sc2C1 [Example 75, [1-({[5-(4,6-difluoro-1H-indole-2-carbonyl)-4H,5H,6H,7H-[1,3]thiazolo[5,4-c]pyridin-2-yl]amino}methyl)cyclopropyl]methanol]	< 1	< 5
Cc1cccc2[nH]c(C(=O)N3CCc4nc(NC5CCOC5)sc4C3)cc12 (centres unmarked) [Example 76, 5-(4-methyl-1H-indole-2-carbonyl)-N-(oxolan-3-yl)-4H,5H,6H,7H-[1,3]thiazolo[5,4-c]pyridin-2-amine]	< 1	< 5
N#Cc1cc(F)cc2[nH]c(C(=O)N3CCc4nc(N)sc4C3)cc12 [Example 77, 2-{2-amino-4H,5H,6H,7H-[1,3]thiazolo[5,4-c]pyridine-5-carbonyl}-6-fluoro-1H-indole-4-carbonitrile]	< 1	< 5
Nc1nc2c(s1)CN(C(=O)c1cc3c(F)c(F)c(F)cc3[nH]1)CC2 [Example 78, 5-(4,5,6-trifluoro-1H-indole-2-carbonyl)-4H,5H,6H,7H-[1,3]thiazolo[5,4-c]pyridin-2-amine]	< 1	< 5
N#Cc1ccc(F)c2[nH]c(C(=O)N3CCc4nc(N)sc4C3)cc12 [Example 79, 2-{2-amino-4H,5H,6H,7H-[1,3]thiazolo[5,4-c]pyridine-5-carbonyl}-7-fluoro-1H-indole-4-carbonitrile]	1 to 10	< 100
Nc1nc2c(s1)CN(C(=O)c1cc3c(Cl)c(F)ccc3[nH]1)CC2 [Example 80, 5-(4-chloro-5-fluoro-1H-indole-2-carbonyl)-4H,5H,6H,7H-[1,3]thiazolo[5,4-c]pyridin-2-amine]	< 1	< 5
CCc1cccc2[nH]c(C(=O)N3CCc4nc(N)sc4C3)cc12 [Example 81, 5-(4-ethyl-1H-indole-2-carbonyl)-4H,5H,6H,7H-[1,3]thiazolo[5,4-c]pyridin-2-amine]	< 1	< 5
